# Reference: patent publication US20240107999A1, “ANTIBACTERIAL COMPOSITION” (LG CHEM, LTD., priority 2021, published 2024)
# How the values were obtained:
# P. mirabilis (ATCC29906) [1] = experiment: Antibacterial strength (bacteriostatic reduction rate) by Methods 1 to 4, broth culture absorbance at 600 nm; assay type: cell-based; settings: Proteus mirabilis, 16 hours, 35° C.; for inhibition of growth at 200 µg/mL: amount of antibacterial composition added 0.005 g in 25 ml broth, 3,000 CFU/ml, read-out: Antibacterial strength (%) Method 2; for inhibition of growth at 400 µg/mL: amount of antibacterial composition added 0.01 g in 25 ml broth, 3,000 CFU/ml, read-out: Antibacterial strength (%) Method 4; for inhibition of growth at 600 µg/mL: amount of antibacterial composition added 0.015 g in 25 ml broth, 3,000 CFU/ml, read-out: Antibacterial strength (%) Method 1; for inhibition of growth at 800 µg/mL: amount of antibacterial composition added 0.02 g in 25 ml broth, 3,000 CFU/ml, read-out: Antibacterial strength (%) Method 3
# Method: (§1) After 25 ml of a broth-type medium (Nutrient broth, BD DIFCO., 8 g/L) inoculated with 3,000 CFU/ml bacteria is put into a 50 mL conical tube, 0.015 g of the antibacterial composition is added thereto and suspended (by vortexing), a sufficiently mixed solution is incubated for 16 hours in a shaking water bath maintained at 35° C.
# (§2) After the incubated solution was diluted to ⅕ using a 1×PBS buffer solution, absorbance (λ=600 nm) was measured using a UV/Vis spectrophotometer, and the antibacterial strength, which is a bacteriostatic reduction rate, is calculated by the following equation by comparing the measured absorbance with a solution incubated without the addition of the antibacterial composition.
# (§3) Antibacterial strength(%)=(1−Asample/AReference)×100 • Asample=Absorbance of medium solution incubated by adding antibacterial composition • AReference=Absorbance of medium solution incubated without addition of antibacterial composition
# (§4) This method is the same as Method 1, except that 0.005 g of the antibacterial composition is added instead of 0.015 g of the antibacterial composition.
# (§5) This method is the same as Method 1, except that 0.02 g of the antibacterial composition is added instead of 0.015 g of the antibacterial composition.
# (§6) This method is the same as Method 1, except that 0.01 g of the antibacterial composition is added instead of 0.015 g of the antibacterial composition.
# The antibacterial strength of Monomers 1 to 10 and Comparative Monomers 1 and 2 by Methods 1 to 4 was measured, and is shown in the following Table 1. In this case, the P. mirabilis (ATCC29906) bacteria were used.
# [2] = Acute oral toxicity dose LD50 by 3T3 Neutral Red Uptake (NRU) assay (OECD Guidance Document No 129); assay type: cell-based; settings: mouse, 3T3 cells, po, calculated from 3T3 NRU assay
# Method: (§7) The acute oral toxicity dose LD50 and acute percutaneous toxicity dose LD50 were measured by 3T3 Neutral Red Uptake (NRU) assay (OECD Guidance Document No 129). Specifically, the acute oral toxicity dose LD50 and acute percutaneous toxicity dose LD50 can be calculated by the following method: […]
# P. mirabilis (ATCC29906) [3] = experiment: Time at which 99.9% of the antibacterial strength is confirmed (Methods 1 to 4); assay type: cell-based, Proteus mirabilis; settings: for Time at which 99.9% of the antibacterial strength is confirmed, Method 2: amount of antibacterial composition added 0.005 g; for Time at which 99.9% of the antibacterial strength is confirmed, Method 4: amount of antibacterial composition added 0.01 g; for Time at which 99.9% of the antibacterial strength is confirmed, Method 1: amount of antibacterial composition added 0.015 g; for Time at which 99.9% of the antibacterial strength is confirmed, Method 3: amount of antibacterial composition added 0.02 g
# Method: as §1, §2, §3, §4, §5, §6
# The time at which 99.9% of the antibacterial strength of Monomers 1 to 10 and Comparative Monomers 1 and 2 is confirmed is shown in the following Table 2.
# 3T3 = experiment: Acute oral toxicity dose LD50 by 3T3 Neutral Red Uptake (NRU) assay (OECD Guidance Document No 129); assay type: cell-based; settings: calculated from 3T3 NRU assay
# Method: as §7
# [4] = Acute percutaneous toxicity dose LD50 by 3T3 Neutral Red Uptake (NRU) assay (OECD Guidance Document No 129); assay type: cell-based; settings: mouse, 3T3 cells, other: percutaneous, calculated from 3T3 NRU assay
# Method: as §7
SMILES,inhibition of growth at 200 µg/mL (P. mirabilis (ATCC29906) [1]) [%],inhibition of growth at 400 µg/mL (P. mirabilis (ATCC29906) [1]) [%],inhibition of growth at 600 µg/mL (P. mirabilis (ATCC29906) [1]) [%],inhibition of growth at 800 µg/mL (P. mirabilis (ATCC29906) [1]) [%],LD50 [2] [mg/kg],"Time at which 99.9% of the antibacterial strength is confirmed, Method 2 (P. mirabilis (ATCC29906) [3])","Time at which 99.9% of the antibacterial strength is confirmed, Method 4 (P. mirabilis (ATCC29906) [3])","Time at which 99.9% of the antibacterial strength is confirmed, Method 1 (P. mirabilis (ATCC29906) [3])","Time at which 99.9% of the antibacterial strength is confirmed, Method 3 (P. mirabilis (ATCC29906) [3])",Acute oral toxicity dose (mg/Kg) LD50 (3T3),LD50 [4] [mg/kg]
"C=CC(=O)OCC[N+](CCCC)(CCCC)CCCCCC [Comparative Monomer 1, reference compound]",22.6,30.7,38.8,46.9,2360,–,–,–,–,–,–
"C=CC(=O)OCC[N+](CCCCCCCCCCCCCC)(CCCCCCCCCCCCCC)CCCCCCCCCCCCCC [Comparative Monomer 2, reference compound]",99.9,99.9,99.9,99.9,231,Within 1 hour,Within 1 hour,Within 1 hour,Within 1 hour,–,–
C=CC(=O)OCC[N+](CCCC)(CCCC)CCCCCCCC [Monomer 1],59.3,68.2,99.9,99.9,≥ 1000,–,–,Within 1 hour,Within 1 hour,"1,708 mg/Kg",≥ 2000
C=CC(=O)OCC[N+](CCCC)(CCCC)CCCCCCCCCC [Monomer 2],99.9,99.9,99.9,99.9,≥ 1000,Within 1 hour,Within 1 hour,Within 1 hour,Within 1 hour,"1,369 mg/Kg",≥ 2000
C=CC(=O)OCC[N+](CCCC)(CCCC)CCCCCCCCCCCC [Monomer 3],99.9,99.9,99.9,–,843,Within 1 hour,Within 1 hour,Within 1 hour,Within 1 hour,–,≥ 2000
C=CC(=O)OCC[N+](CCCCCCCC)(CCCCCCCC)CCCCCCCC [Monomer 4],99.9,99.9,99.9,99.9,≥ 1000,Within 1 hour,Within 1 hour,Within 1 hour,Within 1 hour,"1,442 mg/Kg",≥ 2000
